Data set [1] relates to Plasmodium berghei. The data set is described as follows: Antimalarial activity against Plasmodium berghei infected in NMRI mice (Mus musculus) assessed as reduction in parasitaemia at 10 mg/kg, perorally administered 1 day post infection. Type of data set: functional. Set-up: scale not given: the % may be the effect or the level left. Particulars: route oral.
In data set [2] the test system is Plasmodium falciparum. Briefly: Antimalarial activity against chloroquine-sensitive Plasmodium falciparum NF54. Type of data set: functional, organism-based.
Data set [3] concerns Plasmodium falciparum. The data set is described as follows: Antimalarial activity against chloroquine-resistant Plasmodium falciparum K1. In kind it is functional, organism-based.
The test system of data set [4] is Plasmodium berghei. Briefly: Antimalarial activity against Plasmodium berghei infected in NMRI mice (Mus musculus) assessed as survival time at 3 mg/kg, perorally administered for 3 days post infection. In kind it is functional. The note with it: route oral.
In data set [5] the test system is Plasmodium berghei. Briefly: Antimalarial activity against Plasmodium berghei infected in NMRI mice (Mus musculus) assessed as reduction in parasitaemia at 3 mg/kg, perorally administered for 3 days post infection. Type of data set: functional. Set-up: scale not given: the % may be the effect or the level left. Particulars: route oral.
Data set [6] concerns Plasmodium berghei. The data set is described as follows: Antimalarial activity against Plasmodium berghei infected in NMRI mice (Mus musculus) assessed as cure rat at 3 mg/kg, perorally administered for 3 days post infection measured after 30 days. Type of data set: functional. The note with it: route oral.
A short description of data set [7]: Lipophilicity, log D at pH 7.4. Particulars: buffer. Type of data set: physicochemical.

SMILES strings stand for the structures. Converted amounts (≈) assume the structure as drawn.

Consider 33 compounds from ChEMBL document CHEMBL1153189, “The comparative antimalarial properties of weak base and neutral synthetic ozonides” (Bioorg Med Chem Lett, 2010).

On to `Nc1n[nH]c(C(=O)NC[C@H]2CC[C@]3(CC2)OO[C@]2(O3)C3CC4CC(C3)CC2C4)n1`, for which, in the data set on Plasmodium berghei [1], the Activity is 99.8%.

Turning to `O=C(NC[C@H]1CC[C@]2(CC1)OO[C@]1(O2)C2CC3CC(C2)CC1C3)c1ccccn1`, in the data set on Plasmodium berghei [1], the Activity is on record as 98%.

Regarding `O=C(NCC1CCC2(CC1)OOC1(O2)C2CC3CC(C2)CC1C3)c1ccccn1` (configuration not stated), half-maximal inhibition in the data set with Plasmodium falciparum [2] (IC50) was put at 1.1 ng/mL (≈ 2.76 nM). The Activity in the data set on Plasmodium berghei [1] is 99.6%.

For the compound `CC(=O)NC[C@H]1CC[C@]2(CC1)OO[C@]1(O2)C2CC3CC(C2)CC1C3`, the IC50 (commonly the concentration needed to halve the response being measured) was found to be 0.84 ng/mL (≈ 2.5 nM) in the data set on Plasmodium falciparum [2] and 0.63 ng/mL (≈ 1.88 nM) in the data set with Plasmodium falciparum [3]. For the same compound, the Activity in the data set with Plasmodium berghei [1] turned out to be 98%.

Regarding `CS(=O)(=O)O.O=C(NC[C@H]1CC[C@]2(CC1)OO[C@]1(O2)C2CC3CC(C2)CC1C3)c1c[nH]cn1`, the IC50 with Plasmodium falciparum [2] worked out at 1.1 ng/mL; in the data set on Plasmodium falciparum [3] it was 0.84 ng/mL. In addition, the Activity in the data set on Plasmodium berghei [1] came out at 99.5%.

Turning to `CS(=O)(=O)O.O=C(NC[C@H]1CC[C@]2(CC1)OO[C@]1(O2)C2CC3CC(C2)CC1C3)C(=O)NC1CCNCC1`, the concentration for half-maximal inhibition (IC50) in the data set with Plasmodium falciparum [2] turned out to be 0.79 ng/mL; with Plasmodium falciparum [3], 0.56 ng/mL. Moreover, the Survival with Plasmodium berghei [4] turned out to be 22.4 days. The Activity was above 99.9% with Plasmodium berghei [1], above 99.9% in the data set with Plasmodium berghei [5] and 20% with Plasmodium berghei [6].

Regarding `Cc1ccc(S(=O)(=O)O)cc1.O=C(CN1CCS(=O)(=O)CC1)NC[C@H]1CC[C@]2(CC1)OO[C@]1(O2)C2CC3CC(C2)CC1C3`, the IC50 came out at 5.5 ng/mL with Plasmodium falciparum [2] and 4.6 ng/mL in the data set on Plasmodium falciparum [3]. Further, the Activity in the data set on Plasmodium berghei [1] is on record as 86%. The logD (as a rule, lipophilicity at a set pH, counting ionised and neutral species) in data set [7] worked out at 4.5.

Consider `Cc1ccc(S(=O)(=O)O)cc1.Cc1ccc(S(=O)(=O)O)cc1.O=C(CN1CCNCC1)NC[C@H]1CC[C@]2(CC1)OO[C@]1(O2)C2CC3CC(C2)CC1C3`, for which the IC50 in the data set with Plasmodium falciparum [2] worked out at 1.4 ng/mL; in the data set with Plasmodium falciparum [3], 0.59 ng/mL. Further, in the data set with Plasmodium berghei [1], the Activity came out at 99.7%.

In the case of `CC(C)(N)CNC(=O)C(=O)NC[C@H]1CC[C@]2(CC1)OO[C@]1(O2)C2CC3CC(C2)CC1C3.CS(=O)(=O)O`, the IC50 with Plasmodium falciparum [2] was 0.54 ng/mL; in the data set on Plasmodium falciparum [3] it was 0.4 ng/mL. In the data set on Plasmodium berghei [4], the Survival was 22.8 days. Besides, the Activity with Plasmodium berghei [1] is on record as 99.9%; with Plasmodium berghei [5] it was above 99.9%; in the data set on Plasmodium berghei [6] it was 0%.

With `NC(=O)C(=O)NC[C@H]1CC[C@]2(CC1)OO[C@]1(O2)C2CC3CC(C2)CC1C3`, the 50% inhibitory concentration (IC50) with Plasmodium falciparum [2] worked out at 0.71 ng/mL (≈ 1.95 nM); in the data set on Plasmodium falciparum [3], 0.44 ng/mL (≈ 1.21 nM). For the same compound, the Activity with Plasmodium berghei [1] was 99.5%.

Take `Cc1ccc(S(=O)(=O)O)cc1.O=C(CNC1CC1)NC[C@H]1CC[C@]2(CC1)OO[C@]1(O2)C2CC3CC(C2)CC1C3`: the results for the IC50 with Plasmodium falciparum [2] and in the data set with Plasmodium falciparum [3] were 1.2 ng/mL and 0.39 ng/mL, respectively. For the same compound, the Activity with Plasmodium berghei [1] came out at 99.6%.

For the compound `NC1(C(=O)NC[C@H]2CC[C@]3(CC2)OO[C@]2(O3)C3CC4CC(C3)CC2C4)CCCCC1`, the IC50 stood at 0.44 ng/mL (≈ 1.05 nM) in the data set on Plasmodium falciparum [2] and 0.24 ng/mL (≈ 0.573 nM) with Plasmodium falciparum [3]. Besides, the Activity in the data set with Plasmodium berghei [1] was determined as 99.9%.

Consider `NC1(C(=O)NC[C@H]2CC[C@]3(CC2)OO[C@]2(O3)C3CC4CC(C3)CC2C4)CCCC1`, for which the IC50 in the data set on Plasmodium falciparum [2] was found to be 0.36 ng/mL (≈ 0.89 nM); in the data set with Plasmodium falciparum [3], 0.33 ng/mL (≈ 0.816 nM). In the data set on Plasmodium berghei [1], the Activity amounted to 99.9%.

Take `CN(C)C(=O)NC[C@H]1CC[C@]2(CC1)OO[C@]1(O2)C2CC3CC(C2)CC1C3`: the results for the IC50 in the data set with Plasmodium falciparum [2] and in the data set with Plasmodium falciparum [3] were 1.5 ng/mL (≈ 4.12 nM) and 1.1 ng/mL (≈ 3.02 nM), respectively. In addition, the Activity in the data set with Plasmodium berghei [1] is 99.4%.

Take `OC(c1cc(C(F)(F)F)nc2c(C(F)(F)F)cccc12)C1CCCCN1` (configuration not stated) [MEFLOQUINE]: the Activity with Plasmodium berghei [6] was determined as 0%.

`O=C(NC[C@H]1CC[C@]2(CC1)OO[C@]1(O2)C2CC3CC(C2)CC1C3)c1cccnc1` gave an IC50 in the data set on Plasmodium falciparum [3] of 0.97 ng/mL (≈ 2.43 nM). The Activity in the data set on Plasmodium berghei [1] was 99.6%.

Turning to `Cc1ccc(S(=O)(=O)O)cc1.O=C(NC[C@H]1CC[C@]2(CC1)OO[C@]1(O2)C2CC3CC(C2)CC1C3)N1CCNCC1`, the IC50 with Plasmodium falciparum [2] is 0.68 ng/mL; in the data set on Plasmodium falciparum [3], 0.43 ng/mL. The Survival with Plasmodium berghei [4] worked out at 27 days. The results for the Activity in the data set with Plasmodium berghei [1], in the data set with Plasmodium berghei [5] and with Plasmodium berghei [6] were above 99.9%, above 99.9% and 40%, respectively.

Consider `O=C(NC[C@H]1CC[C@]2(CC1)OO[C@]1(O2)C2CC3CC(C2)CC1C3)c1ccncc1`, for which the figures for the IC50 with Plasmodium falciparum [2] and with Plasmodium falciparum [3] were 1.1 ng/mL (≈ 2.76 nM) and 2.2 ng/mL (≈ 5.52 nM), respectively. Also, the Activity with Plasmodium berghei [1] stood at 99.5%.

As for `CCN(CC)CCCC(C)Nc1ccnc2cc(Cl)ccc12` (configuration not stated) [CHLOROQUINE], the Survival in the data set on Plasmodium berghei [4] came to 9.4 days. In the data set on Plasmodium berghei [6], the Activity amounted to 0%.

Regarding `CN1CCN(C(=O)NC[C@H]2CC[C@]3(CC2)OO[C@]2(O3)C3CC4CC(C3)CC2C4)CC1`, the results for the IC50 in the data set with Plasmodium falciparum [2] and with Plasmodium falciparum [3] were 0.34 ng/mL (≈ 0.81 nM) and 0.2 ng/mL (≈ 0.477 nM), respectively. For the same compound, the Activity in the data set on Plasmodium berghei [1] was found to be 99.9%.

`CC(C)(N)C(=O)NC[C@H]1CC[C@]2(CC1)OO[C@]1(O2)C2CC3CC(C2)CC1C3`: the IC50 in the data set with Plasmodium falciparum [2] worked out at 0.36 ng/mL (≈ 0.951 nM); in the data set on Plasmodium falciparum [3] it was 0.5 ng/mL (≈ 1.32 nM). For the same compound, the Activity is reported as 99.9% in the data set on Plasmodium berghei [1], above 99.9% in the data set on Plasmodium berghei [5] and 0% in the data set on Plasmodium berghei [6].

As to `Cc1ccc(S(=O)(=O)O)cc1.NCCC(=O)NC[C@H]1CC[C@]2(CC1)OO[C@]1(O2)C2CC3CC(C2)CC1C3`, the Survival in the data set with Plasmodium berghei [4] stood at 20.8 days. The results for the Activity in the data set with Plasmodium berghei [1], in the data set on Plasmodium berghei [5] and in the data set with Plasmodium berghei [6] were 99.9%, above 99.9% and 0%, respectively.

As for `CS(=O)(=O)O.NCC(=O)NC[C@H]1CC[C@]2(CC1)OO[C@]1(O2)C2CC3CC(C2)CC1C3`, the half-inhibitory concentration (IC50) was determined as 0.29 ng/mL with Plasmodium falciparum [2] and 0.36 ng/mL in the data set with Plasmodium falciparum [3]. The Activity with Plasmodium berghei [1] was 99.9%; in the data set on Plasmodium berghei [5], above 99.9%; in the data set on Plasmodium berghei [6], 0%.

In the case of `O=C(O)CCC(=O)NC[C@H]1CC[C@]2(CC1)OO[C@]1(O2)C2CC3CC(C2)CC1C3`, the IC50 with Plasmodium falciparum [2] amounted to 97 ng/mL (≈ 247 nM); in the data set on Plasmodium falciparum [3], 71 ng/mL (≈ 180 nM). Besides, in the data set on Plasmodium berghei [1], the Activity was below 40%.

As to `CCNC(=O)NC[C@H]1CC[C@]2(CC1)OO[C@]1(O2)C2CC3CC(C2)CC1C3`, in the data set on Plasmodium berghei [1], the Activity is given as 98%.

In the case of `Cc1ccc(S(=O)(=O)O)cc1.O=C(CNCC1CC1)NC[C@H]1CC[C@]2(CC1)OO[C@]1(O2)C2CC3CC(C2)CC1C3`, the values for the IC50 in the data set with Plasmodium falciparum [2] and in the data set on Plasmodium falciparum [3] were 1.2 ng/mL and 0.36 ng/mL, respectively.

For `CS(=O)(=O)CC(=O)NCC1CC[C@]2(CC1)OO[C@]1(O2)C2CC3CC(C2)CC1C3` (some centres not stated), the Activity in the data set with Plasmodium berghei [1] is on record as 99.2%.

With `CS(=O)(=O)O.O=C(NC[C@H]1CC[C@]2(CC1)OO[C@]1(O2)C2CC3CC(C2)CC1C3)C(=O)N1CCNCC1`, the results for the IC50 in the data set on Plasmodium falciparum [2] and in the data set on Plasmodium falciparum [3] were 0.54 ng/mL and 0.69 ng/mL, respectively. Also, the Activity with Plasmodium berghei [1] worked out at 99.9%.

As to `O=C(O)C(=O)NC[C@H]1CC[C@]2(CC1)OO[C@]1(O2)C2CC3CC(C2)CC1C3`, the IC50 with Plasmodium falciparum [2] came to 59 ng/mL (≈ 161 nM); in the data set with Plasmodium falciparum [3], 58 ng/mL (≈ 159 nM). Moreover, in the data set with Plasmodium berghei [1], the Activity is given as below 40%.

For the compound `O=CNCC(=O)NC[C@H]1CC[C@]2(CC1)OO[C@]1(O2)C2CC3CC(C2)CC1C3`, half-maximal inhibition with Plasmodium falciparum [3] (IC50) was put at 0.9 ng/mL (≈ 2.38 nM). The Activity in the data set on Plasmodium berghei [1] worked out at 98%.

For `NC(=O)NC[C@H]1CC[C@]2(CC1)OO[C@]1(O2)C2CC3CC(C2)CC1C3`, the IC50 with Plasmodium falciparum [2] came out at 1.6 ng/mL (≈ 4.76 nM); in the data set with Plasmodium falciparum [3], 0.56 ng/mL (≈ 1.66 nM). Also, the Activity in the data set with Plasmodium berghei [1] came to 98%.

In the case of `O=C(NC[C@H]1CC[C@]2(CC1)OO[C@]1(O2)C2CC3CC(C2)CC1C3)N1CCOCC1`, the Activity with Plasmodium berghei [1] is reported as 98%.

`O=C1CNC(=O)N1C[C@H]1CC[C@]2(CC1)OO[C@]1(O2)C2CC3CC(C2)CC1C3`: the IC50 in the data set with Plasmodium falciparum [2] is 2.7 ng/mL (≈ 7.17 nM); in the data set on Plasmodium falciparum [3], 1 ng/mL (≈ 2.66 nM). In the data set on Plasmodium berghei [1], the Activity is given as 92%.
